Source: the NIST ThermoML archive (doi:10.1021/je060355j)
Numbers after ± are expanded uncertainties.

Key:
[1] = excess molar enthalpy (molar enthalpy of mixing); xn = mol fraction of the nth substance listed; conditions: 101.32 kPa, Liquid
[2] = xn = mol fraction of the nth substance listed; conditions: 101.32 kPa, Liquid

CCCCOC=O [butyl methanoate] + CCCCCC
Conditions	excess molar enthalpy [kcal/mol]	mass density [kg/m3]
[1], 291.15 K, x1 = 0.0865	0.0769 ± 0.00174	–
[1], 291.15 K, x1 = 0.1588	0.134 ± 0.00263	–
[1], 291.15 K, x1 = 0.2303	0.183 ± 0.00335	–
[1], 291.15 K, x1 = 0.2973	0.216 ± 0.00382	–
[1], 291.15 K, x1 = 0.3551	0.237 ± 0.00406	–
[1], 291.15 K, x1 = 0.4081	0.248 ± 0.0043	–
[1], 291.15 K, x1 = 0.454	0.253 ± 0.0043	–
[1], 291.15 K, x1 = 0.5114	0.251 ± 0.0043	–
[1], 291.15 K, x1 = 0.5606	0.243 ± 0.00406	–
[1], 291.15 K, x1 = 0.6177	0.228 ± 0.00382	–
[1], 291.15 K, x1 = 0.6775	0.205 ± 0.00359	–
[1], 291.15 K, x1 = 0.7406	0.176 ± 0.00311	–
[1], 291.15 K, x1 = 0.8067	0.14 ± 0.00263	–
[1], 291.15 K, x1 = 0.873	0.0959 ± 0.00198	–
[1], 291.15 K, x1 = 0.94	0.0509 ± 0.00134	–
[1], 318.15 K, x1 = 0.0808	0.105 ± 0.00215	–
[1], 318.15 K, x1 = 0.1626	0.168 ± 0.00311	–
[1], 318.15 K, x1 = 0.2415	0.217 ± 0.00382	–
[1], 318.15 K, x1 = 0.311	0.248 ± 0.0043	–
[1], 318.15 K, x1 = 0.3823	0.268 ± 0.00454	–
[1], 318.15 K, x1 = 0.4464	0.275 ± 0.00454	–
[1], 318.15 K, x1 = 0.4882	0.274 ± 0.00454	–
[1], 318.15 K, x1 = 0.5104	0.275 ± 0.00454	–
[1], 318.15 K, x1 = 0.5661	0.266 ± 0.00454	–
[1], 318.15 K, x1 = 0.63	0.25 ± 0.0043	–
[1], 318.15 K, x1 = 0.7075	0.219 ± 0.00382	–
[1], 318.15 K, x1 = 0.7904	0.175 ± 0.00311	–
[1], 318.15 K, x1 = 0.868	0.121 ± 0.00237	–
[1], 318.15 K, x1 = 0.9412	0.0645 ± 0.00158	–
[2], 291.15 K, x1 = 0.0445	–	669.6 ± 2
[2], 291.15 K, x1 = 0.09	–	678.6 ± 2
[2], 291.15 K, x1 = 0.1461	–	689.8 ± 2
[2], 291.15 K, x1 = 0.1928	–	699.5 ± 2
[2], 291.15 K, x1 = 0.249	–	711.4 ± 2
[2], 291.15 K, x1 = 0.3018	–	722.7 ± 2
[2], 291.15 K, x1 = 0.4025	–	745.2 ± 1.9
[2], 291.15 K, x1 = 0.5021	–	768.3 ± 1.9
[2], 291.15 K, x1 = 0.5957	–	790.7 ± 2
[2], 291.15 K, x1 = 0.6963	–	815.7 ± 2
[2], 291.15 K, x1 = 0.7541	–	830.4 ± 2.1
[2], 291.15 K, x1 = 0.802	–	842.7 ± 2.1
[2], 291.15 K, x1 = 0.8532	–	856.1 ± 2.2
[2], 291.15 K, x1 = 0.8987	–	868.2 ± 2.2
[2], 291.15 K, x1 = 0.9575	–	884.3 ± 2.3
[2], 291.15 K, x1 = 1	–	896 ± 2.4
[2], 298.15 K, x1 = 0.0729	–	669.39 ± 2
[2], 298.15 K, x1 = 0.1321	–	681.03 ± 2
[2], 298.15 K, x1 = 0.1967	–	694.2 ± 2
[2], 298.15 K, x1 = 0.2658	–	708.76 ± 2
[2], 298.15 K, x1 = 0.336	–	723.94 ± 2
[2], 298.15 K, x1 = 0.3698	–	731.4 ± 2
[2], 298.15 K, x1 = 0.4886	–	758.31 ± 2
[2], 298.15 K, x1 = 0.5876	–	781.81 ± 2
[2], 298.15 K, x1 = 0.6855	–	805.81 ± 2
[2], 298.15 K, x1 = 0.7677	–	826.55 ± 2.1
[2], 298.15 K, x1 = 0.8136	–	838.26 ± 2.1
[2], 298.15 K, x1 = 0.8574	–	849.77 ± 2.2
[2], 298.15 K, x1 = 0.8986	–	860.63 ± 2.2
[2], 298.15 K, x1 = 0.9227	–	867.09 ± 2.3
[2], 298.15 K, x1 = 0.9714	–	880.08 ± 2.3
[2], 298.15 K, x1 = 1	–	888.66 ± 2.4
[2], 308.15 K, x1 = 0.047	–	654.6 ± 2.1
[2], 308.15 K, x1 = 0.1095	–	666.7 ± 2.1
[2], 308.15 K, x1 = 0.1485	–	674.6 ± 2.1
[2], 308.15 K, x1 = 0.2005	–	685.2 ± 2
[2], 308.15 K, x1 = 0.2579	–	697.2 ± 2
[2], 308.15 K, x1 = 0.2981	–	705.7 ± 2
[2], 308.15 K, x1 = 0.4033	–	728.8 ± 2
[2], 308.15 K, x1 = 0.5098	–	753.1 ± 2
[2], 308.15 K, x1 = 0.6081	–	776.4 ± 2
[2], 308.15 K, x1 = 0.7112	–	801.8 ± 2.1
[2], 308.15 K, x1 = 0.7576	–	813.5 ± 2.1
[2], 308.15 K, x1 = 0.8073	–	826.3 ± 2.2
[2], 308.15 K, x1 = 0.8511	–	837.7 ± 2.2
[2], 308.15 K, x1 = 0.9081	–	852.9 ± 2.3
[2], 308.15 K, x1 = 0.9598	–	867.3 ± 2.3
[2], 308.15 K, x1 = 1	–	878.24 ± 2.4
[2], 318.15 K, x1 = 0.0493	–	645.6 ± 2.1
[2], 318.15 K, x1 = 0.0857	–	652.7 ± 2.1
[2], 318.15 K, x1 = 0.1192	–	659.1 ± 2.1
[2], 318.15 K, x1 = 0.1589	–	666.9 ± 2.1
[2], 318.15 K, x1 = 0.1975	–	674.7 ± 2.1
[2], 318.15 K, x1 = 0.2452	–	684.5 ± 2.1
[2], 318.15 K, x1 = 0.3006	–	696.2 ± 2.1
[2], 318.15 K, x1 = 0.4015	–	718 ± 2
[2], 318.15 K, x1 = 0.495	–	739.2 ± 2
[2], 318.15 K, x1 = 0.5929	–	762.2 ± 2.1
[2], 318.15 K, x1 = 0.705	–	789.5 ± 2.1
[2], 318.15 K, x1 = 0.746	–	799.7 ± 2.1
[2], 318.15 K, x1 = 0.8134	–	817.05 ± 2.2
[2], 318.15 K, x1 = 0.9067	–	841.5 ± 2.3
[2], 318.15 K, x1 = 0.9647	–	857.1 ± 2.4
[2], 318.15 K, x1 = 1	–	867.21 ± 2.4
